This is an account of results in ChEMBL document CHEMBL1201862, “PubChem BioAssay data set” (2004).

The subject of one test is HEK293. Kind of test: Fluorescence-based counterscreen for potentiators or agonists of NPY-Y1: cell-based high-throughput dose response assay for inhibitors of cyclic nucleotide gated ion channel (CNGC) activity. In this assay, the parental HEK293 cell line transfected with a cyclic-nucleotide gated ion channel (CNGC)-based cAMP sensor is used to measure inhibition of isoproterenol-induced CNGC …. Type of test: functional. The following applies: Homo sapiens. (In general: The purpose of a counterscreen is to sort out artefacts and off-target activity.)

The target in test [1] is T1, Neuropeptide Y receptor type 2 (Homo sapiens, UniProt P49146).
T1 sequence (P49146 whole entry): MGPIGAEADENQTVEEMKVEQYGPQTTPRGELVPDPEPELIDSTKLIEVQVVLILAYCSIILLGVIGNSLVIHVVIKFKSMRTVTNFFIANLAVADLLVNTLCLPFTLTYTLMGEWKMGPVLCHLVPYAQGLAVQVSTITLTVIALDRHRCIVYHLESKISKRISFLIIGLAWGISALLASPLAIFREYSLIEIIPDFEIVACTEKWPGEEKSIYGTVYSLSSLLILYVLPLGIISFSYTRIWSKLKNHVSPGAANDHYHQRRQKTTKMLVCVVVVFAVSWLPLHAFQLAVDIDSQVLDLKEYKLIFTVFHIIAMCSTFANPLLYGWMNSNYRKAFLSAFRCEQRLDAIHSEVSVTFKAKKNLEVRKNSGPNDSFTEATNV
Kind of test: Fluorescence-based counterscreen for agonists of NPY-Y1: cell-based high-throughput dose response assay for agonists of NPY-Y2. Type of test: functional.

The target in test [2] is T2, Neuropeptide Y receptor type 1 (Homo sapiens, UniProt P25929).
T2 sequence (P25929 whole entry): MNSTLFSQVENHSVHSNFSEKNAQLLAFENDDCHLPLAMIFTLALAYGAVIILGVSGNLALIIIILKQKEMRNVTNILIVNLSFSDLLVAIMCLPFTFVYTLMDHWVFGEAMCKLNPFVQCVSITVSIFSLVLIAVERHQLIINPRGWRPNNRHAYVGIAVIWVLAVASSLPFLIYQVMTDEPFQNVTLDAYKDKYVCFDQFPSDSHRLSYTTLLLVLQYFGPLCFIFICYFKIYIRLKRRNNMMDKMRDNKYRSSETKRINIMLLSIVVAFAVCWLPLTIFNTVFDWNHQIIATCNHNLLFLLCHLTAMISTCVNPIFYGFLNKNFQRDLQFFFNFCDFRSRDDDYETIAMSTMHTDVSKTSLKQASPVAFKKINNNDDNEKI
Briefly: Fluorescence-based dose response cell-based high-throughput screening assay for agonists of NPY-Y1. [Related pubchem assays: 1697 (Screening assay (NPY-Y1 agonists).), 1359 (Screening assay (NPY-Y2 potentiators or agonists).), 1304 (Screening assay (NPY-Y1 potentiators or agonists).), 1704 (Screening assay (CNGC inhibitors).), 1791 (Summary AID.)]. The test is classed as functional.

A short description of test [3]: NIH3T3 cell viability loss – ATP luminescence, mouse fibroblasts, counter-screen, dose response (AID 2010).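 Note: cells exposed to compound for about 90 hours before reading.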 The test is classed as functional, cell-based.
Test [4] is described as follows: Trypanosoma cruzi growth suppression in host cells – NIH3T3 host cells, beta-gal luminescence, confirmation (AID 2044).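 Note: intracellular parasites grown in NIH/3T3 mouse fibroblasts as host cells; luminescent beta-galactosidase reporter signal from transgenic T. cruzi replicating inside host cells; inhibitors lower the luminescence signal.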 The test is classed as functional, cell-based.
Test [5] concerns the target Serine/threonine-protein phosphatase (Homo sapiens, UniProt Q9BPW0). Kind of test: Counterscreen for inhibitors of PP1: fluorescence-based biochemical high throughput dose response assay to identify inhibitors of Protein Phosphatase 5 (PP5). [Related pubchem assays: 2034 (Summary (PP5 inhibitors)), 1987 (PP5 inhibitors in singlate), 2235 (PP1 inhibitors in singlate)].

For test [6], the target named is Serine/threonine-protein phosphatase PP1-alpha catalytic subunit (Homo sapiens, UniProt P62136). Briefly: inhibition of protein phosphatase 1 activity – biochemical, fluorescence, dose response (AID 2403).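 Note: phosphatase turnover of OMFP into fluorescent 3-O-methylfluorescein.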

SMILES strings stand for the structures. Active and inactive are the calls of the source. Some results are limits rather than exact numbers.

Sequence of Serine/threonine-protein phosphatase (Q9BPW0 whole entry): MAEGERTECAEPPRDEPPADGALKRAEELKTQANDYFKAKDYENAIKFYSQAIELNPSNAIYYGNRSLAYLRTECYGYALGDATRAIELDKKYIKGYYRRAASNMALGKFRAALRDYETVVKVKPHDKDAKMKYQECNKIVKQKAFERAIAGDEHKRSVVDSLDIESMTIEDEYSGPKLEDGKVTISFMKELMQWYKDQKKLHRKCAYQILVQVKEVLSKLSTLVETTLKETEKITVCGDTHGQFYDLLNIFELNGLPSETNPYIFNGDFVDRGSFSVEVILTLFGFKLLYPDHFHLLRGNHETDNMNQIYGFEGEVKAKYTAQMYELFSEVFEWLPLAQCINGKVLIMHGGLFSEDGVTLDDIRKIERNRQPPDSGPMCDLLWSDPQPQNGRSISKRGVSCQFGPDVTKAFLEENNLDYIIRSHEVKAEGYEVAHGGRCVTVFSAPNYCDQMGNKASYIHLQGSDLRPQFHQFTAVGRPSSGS
Sequence of Serine/threonine-protein phosphatase PP1-alpha catalytic subunit (P62136 whole entry): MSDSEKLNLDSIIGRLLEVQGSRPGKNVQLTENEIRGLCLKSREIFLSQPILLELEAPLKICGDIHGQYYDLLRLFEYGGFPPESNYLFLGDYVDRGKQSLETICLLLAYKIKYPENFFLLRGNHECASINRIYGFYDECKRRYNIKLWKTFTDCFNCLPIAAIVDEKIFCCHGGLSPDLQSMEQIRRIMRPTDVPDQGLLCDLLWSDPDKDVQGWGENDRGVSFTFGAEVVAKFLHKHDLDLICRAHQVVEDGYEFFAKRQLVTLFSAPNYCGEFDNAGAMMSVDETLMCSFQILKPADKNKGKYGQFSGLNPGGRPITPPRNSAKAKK

In general, IC50 refers to the concentration needed to halve the response being measured. By EC50 is commonly meant the midpoint of the concentration-response curve. As to `O=C(Nc1ccncc1)c1ccc2c(c1)C(=O)N(C1CCCCC1)C2=O`, the IC50 in the test on HEK293 was > 35.4 µM (not active). For the same compound, the EC50 in test [1] and in test [2] was > 35.4 µM (not active) each time.
Take `COc1cnc(-c2ccccn2)nc1Sc1ccccc1`: the values for the EC50 in test [3] and in test [4] were > 60 µM (not active) and 2.47 µM (active), respectively. Besides, the IC50 in test [5] was > 67 µM (not active); in test [6], 7.03 µM (active).
